According to patent US10730886B2, “Compound having effect of inhibiting platelet aggregation and salt thereof, and composition for preventing or treating thrombotic diseases, containing same” (SHIN POONG PHARMACEUTICAL CO., LTD., priority 2015, dated 2020):
Like-named read-outs stand apart in the source and are kept apart here.

Experiments:
[1] = tested on: Human Platelet Rich Plasma (PRP); test: Shear stress-induced platelet aggregation inhibition in human platelet rich plasma (PRP), cone-plate viscometer; assay type: cell-based; conditions: for inhibition at 25 µM: Homo sapiens, Platelet
Description: 1-1. Measurement of Platelet Aggregation Inhibitory Effect Using Human Platelet Rich Plasma (PRP)
Blood was collected from the veins of healthy male volunteers who had not taken any medication for more than 2 weeks. All related studies were conducted under the approval of the Seoul National University Institutional Review Board (IRB No. 1305/001-016). During the whole process of study the use of glass containers or glass pipettes was avoided, and the experiments were performed at room temperature. To separate platelet rich plasma (PRP), the blood was collected with 3.2% sodium citrate as an anticoagulant. The whole blood was centrifuged at 150 g for 15 minutes to obtain the supernatant (PRP), and the residue was centrifuged at 2,000 g for 20 minutes to obtain platelet poor plasma (PPP). The number of platelets of the PRP thus obtained was counted with an optical microscope using a hemacytometer. PRP was diluted with PPP so as to include 3×10^8 platelets per 1 ml, and then used in the experiments. PRP was put on a cone-plate viscometer (RotoVisco 1, Thermo Fischer Scientific, USA), and shear stress was applied to the PRP at 37° C. for 3 minutes at a shear rate of 10,800 s^−1. In order to evaluate candidate substances, prior to the induction of platelet aggregation, 598.8 μl of PRP was treated with 1.2 μl of 25 μM candidate substance and incubated at 37° C. for 3 minutes using a thermomixer. After applying the shear stress, 20 μl of PRP was fixed in 280 μl of a suspension buffer containing 0.5% glutaraldehyde (134 mM NaCl, 2.9 mM KCl, 1.0 mM MgCl2.6H2O, 10.0 mM HEPES, 5.0 mM dextrose, 12.0 mM NaHCO3, 0.34 mM Na2HPO4, 0.3% BSA, pH 7.4). Then, the number of single platelets in the suspension was counted using a hemacytometer. The degree of inhibition by the candidate substance was calculated according to the following formula (1). The degree of inhibition was determined by the method described below. No shear stress-applied group served as a control, and only shear stress-applied group served as positive control. Degree of inhibition (%)=[(1−A/B)×100]/[(1−A/C)×100] Formula 1
A: Number of single platelets in the shear stress-applied sample after treatment with candidate substance
B: Number of single platelets in the control group with no shear stress applied
C: Number of single platelets in the positive control group with only shear stress applied

[2] = tested on: carotid artery shear stress model; test: Carotid artery shear stress model, amount of thrombus; assay type: in vivo, Sprague-Dawley rats; conditions: rat; for Amount of thrombus (mg, Mean ± SEM): 25 mg/kg oral, twice a day for 3 days after operation; for shear stress-induced thrombogenesis compared with the control group: oral
Description: Vehicle (0.5% methylcellulose), clopidogrel (8 mg/kg), aspirin (50 mg/kg) or a candidate substance was orally administered to male Sprague-Dawley rats (250 to 300 g). 2 hours after administration, the rats were anesthetized by ketamine/rompun (ketamine/xylazine) cocktail 0.1 ml/100 g. Except for the normal control group, the right cervical skin of the experimental animals was incised to expose the common carotid artery. A surgical tube with a length of 1 mm and an inside diameter of 0.58 mm was inserted into the exposed carotid artery and tied with a single thread. The exposed site and the operation site were treated with an anti-adhesion agent, and then sutured for the animals to recover. After the surgery, vehicle, clopidogrel, aspirin or a candidate substance was orally administered to the rats twice a day for 3 days. On the fourth day, 2 hours after the final administration, urethane (100 mg/300 μl/100 g) was administered intraperitoneally to the rats to induce anesthesia, and the operation site was opened to separate a total of 1 cm of the blood vessel, 5 mm above and 5 mm below the surgical tube. The separated blood vessel was perfused with 0.2 ml of 0.9% saline at 0.3 ml/min to remove the remaining blood, and then maintained in 1 ml of protein lysis buffer (NaOH 2 g, Na2CO3 0.1 g in 500 ml D.W). After collected, the blood vessel thrombus was double-boiled in boiling water together with the protein lysis buffer. 200 μl of the reaction solution (10 ml bicinchoninic acid solution+200 μl 4% aqueous solution of copper sulfate) was added to 10 μl of the heated thrombus, and the mixture was reacted at 37° C. for 30 minutes and quantified with an ELISA reader (562 nm).

plasma [3] = test: Plasma coagulation time, Prothrombin Time (PT); assay type: biochemical; conditions: plasma treated 3 minutes
Description: (§1) In order to separate plasma, blood was collected with 3.2% sodium citrate as an anticoagulant. Whole blood was centrifuged at 2000 g for 20 minutes to obtain plasma. After treating the plasma with the test substances for 3 minutes, plasma coagulation time was measured. For plasma coagulation time, Activated Partial Thromboplastin Time (aPTT) and Prothrombin Time (PT) were measured using BBL® Fibrometer (Becton Dickinson, Cockeysville, Md.). For measurement of aPTT, the plasma was treated with aPTT reagents in fibrometer cup and reacted at 37° C. for 3 min. After the reaction, CaCl2 was added and blood coagulation time was measured immediately. For the measurement of PT, PT reagent was added to warmed plasma, and blood coagulation time was measured immediately. DTI, known to prolong plasma coagulation time, was used as a control.

plasma [4] = test: Plasma coagulation time, Activated Partial Thromboplastin Time (aPTT); assay type: biochemical; conditions: plasma treated 3 minutes
Description: as §1

[5] = tested on: thrombin-induced platelet aggregation, Human PRP; test: Thrombin-induced platelet aggregation in human PRP (lumi-aggregometer); assay type: cell-based; conditions: thrombin 0.6-0.8 U/ml;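 further: aggregation recorded for 5 min after thrombin addition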
Description: To investigate whether the candidate substance has inhibition selectivity for shear-stress-induced platelet aggregation, which is by a physical stimulus, […] experiment was conducted by activating platelets with physiological agonists—i.e., thrombin, collagen and ADP—to study the inhibitory effect of the candidate substance.
Human PRP (598.8 μl) was treated with 1.2 μl of the candidate substance per concentration (25, 100, 250 μM) and reacted at 37° C. for 3 minutes using a thermomixer. Then, PRP (495 μl) was put in the aggregometer cuvette and preincubated for 1 minute, followed by treatment with platelet aggregation-inducing reagent, thrombin (0.6-0.8 U/ml), collagen (2-5 μg/ml), or ADP (adenosine diphosphate, 15-20 μM) at the minimum concentration causing maximum aggregation. The degree of aggregation of the platelets was measured by a turbidity change using a lumi-aggregometer (Chrono-Log Co., USA). The turbidity of the PRP was considered as 0%, and the turbidity of the PPP was considered as 100%. During the measurement, the reaction mixture was continuously stirred at 1,000 rpm with a silicone-coated magnetic stir bar.

[6] = 0.05 h, human PRP, 25 μM, shear rate 10,800 s^-1, 3 min, read-out: Degree of inhibition (%, Mean ± SEM)
[7] = Table 1 summary bins, concentration and matrix not given, read-out: Inhibitory effect of shear stress-induced platelet aggregation
[8] = human PRP, 25 μM, shear rate 10,800 s^-1, 3 min

Row | Structure (SMILES) | inhibition at 25 µM [1, 6] [%] | inhibition at 25 µM [1, 7] [%] | Degree of inhibition (%, Mean ± SEM) [1, 8] [%] | Amount of thrombus (mg, Mean ± SEM) [2] [mg] | shear stress-induced thrombogenesis compared with the control group [2] | plasma coagulation time - PT, Time (plasma [3]; 25 μM) [s] | plasma coagulation time - PT, Time (plasma [3]; 100 μM) [s] | plasma coagulation time - PT, Time (plasma [3]; 250 μM) [s] | plasma coagulation time - aPTT, Time (plasma [4]; 25 μM) [s] | plasma coagulation time - aPTT, Time (plasma [4]; 100 μM) [s] | plasma coagulation time - aPTT, Time (plasma [4]; 250 μM) [s] | Degree of platelet aggregation (%, Mean ± SEM) ([5]; 25 μM) [%] | Degree of platelet aggregation (%, Mean ± SEM) ([5]; 100 μM) [%] | Degree of platelet aggregation (%, Mean ± SEM) ([5]; 250 μM) [%]
1 | O=C(c1ccc(O)c(O)c1)N1CCc2sccc2C1 [Example 1, (6,7-Dihydrothieno[3,2-c]pyridin-5(4H)-yl)(3,4-dihydroxyphenyl)methanone] | 20 to 30 | 20 to 30 | 23 ± 2 | 0.065 ± 0.005 | significantly, remarkably inhibited | 10.8 ± 0.5 | 10.7 ± 0.8 | 11.0 ± 0.1 | 23.8 ± 1.9 | 24.8 ± 2.0 | 26.7 ± 0.8 | 88.0 ± 2.1 | 88.7 ± 6.1 | 78.7 ± 1.8
2 | COc1cc(C(=O)N2CCc3sccc3C2)ccc1O [Example 12, (6,7-Dihydrothieno[3,2-c]pyridin-5(4H)-yl)(4-hydroxy-3-methoxyphenyl)methanone] | 20 to 30 | 20 to 30 | 25 ± 6 | 0.069 ± 0.007 | significantly, remarkably inhibited | 10.9 ± 0.1 | 11.0 ± 0.5 | 10.5 ± 0.3 | 24.3 ± 0.1 | 26.7 ± 1.0 | 27.2 ± 2.0 | 99.5 ± 7.5 | 95.0 ± 12.0 | 88.5 ± 4.5
3 | CCc1occc(=O)c1OC(=O)c1ccc(O)c(OC)c1 [Example 13, 2-Ethyl-4-oxo-4H-pyran-3-yl 4-hydroxy-3-methoxybenzoate] | 20 to 30 | 20 to 30 | 26 ± 6 | 0.064 ± 0.006 | significantly, remarkably inhibited | 11.0 ± 0.3 | 10.6 ± 0.2 | 10.8 ± 0.3 | 24.7 ± 1.0 | 26.6 ± 1.8 | 27.5 ± 1.7 | 92.5 ± 5.5 | 95.0 ± 12.0 | 88.5 ± 4.5
4 | COc1cc(C(=O)Oc2c(C)occc2=O)ccc1O [Example 14, 2-Methyl-4-oxo-4H-pyran-3-yl 4-hydroxy-3-methoxybenzoate] | ≥ 30 | ≥ 30 | – | 0.066 ± 0.006 | significantly, remarkably inhibited | 10.1 ± 0.3 | 10.1 ± 0.0 | 11.1 ± 0.1 | 27.0 ± 0.4 | 26.7 ± 0.2 | 26.3 ± 1.7 | 81.3 ± 2.5 | 84.0 ± 0.6 | 86.0 ± 4.6
5 | COc1ccc(NC(=O)c2ccc(O)c(OC)c2)c([N+](=O)[O-])c1 [Example 15, 4-Hydroxy-3-methoxy-N-(4-methoxy-2-nitrophenyl)benzamide] | 20 to 30 | 20 to 30 | 24 ± 8 | 0.070 ± 0.006 | significantly, remarkably inhibited | 10.7 ± 0.0 | 10.6 ± 0.2 | 10.9 ± 0.1 | 26.3 ± 2.3 | 26.6 ± 1.0 | 29.3 ± 0.5 | 95.5 ± 3.5 | 100.5 ± 4.5 | 98.0 ± 3.0
6 | O=C(c1cc(O)ccc1O)N1CCc2sccc2C1 [Example 20, (6,7-Dihydrothieno[3,2-c]pyridin-5(4H)-yl)(2,5-dihydroxyphenyl)methanone] | ≥ 30 | ≥ 30 | – | 0.068 ± 0.005 | significantly, remarkably inhibited | 10.8 ± 0.4 | 10.2 ± 0.4 | 11.2 ± 0.4 | 24.9 ± 1.0 | 25.3 ± 0.6 | 25.8 ± 0.9 | 84.0 ± 3.2 | 82.3 ± 3.7 | 82.0 ± 15.0
